The results in this text go back to paper PMC10244669, “Virtual screening–based discovery of AI-2 quorum sensing inhibitors that interact with an allosteric hydrophobic site of LsrK and their functional evaluation” (Frontiers in Chemistry, 2023).

Test [1] concerns AI-2-mediated QS (lsr promoter luminescence, reporter strain WHQ02). Put plainly: Cell-based AI-2-mediated QS interference assay. Details: species or system E. coli. The text has this:
All chemicals were purchased from Sigma-Aldrich (St. Louis, MO, United States) unless otherwise stated. DPD was purchased from the […] ZZBIO Co., LTD. (Shanghai, China). The Kinase-Glo Max Luminescent Kinase Assay Kit was purchased from Promega (Madison, WI, United States). NTA sensor chips were purchased from GE Healthcare (Chicago, IL, United States). All compounds used as potential inhibitors of LsrK were purchased from Topscience Biotechnology Co. Ltd. (Shanghai, China). The QS reporter strain WHQ02 (E. coli BL21 ΔTolC pWHQ01) was donated by Huiqi Wen (Institute of Microbiology and Epidemiology, Academy of Military Sciences, Beijing, China). The plasmid pWHQ01 was constructed by cloning the lsr promoter and the luxCDABE luminescent gene. BamHI and XhoI were purchased from New England Biolabs (Ipswich, MA, United States). pET-28a was purchased from Novagen (Madison, WI, United States). Escherichia coli BL21 (DE3) cells were purchased from TransGen Biotech Co., LTD. (Beijing, China). A Ni-NTA column was purchased from Sangon Biotech (Shanghai, China). Sodium dodecyl sulfate-polyacrylamide gel electrophoresis (SDS-PAGE) and the Bradford Protein Assay Kit were purchased from Thermo Fisher Scientific (Waltham, MA, United States).
(§1) WHQ02 cultured overnight were diluted 1:100 in fresh LB supplemented with 100 μg/mL ampicillin and grown at 30°C and until the logarithmic phase (OD600 = 0.4–0.6). The bacterial culture was centrifuged at 4,000 × g for 5 min, and the pellet was resuspended in fresh LB medium to prepare a suspension of 2 McFarland standard and added to the 96-well plate. In the experimental group, 74 compounds (final concentrations ranging from 100 to 3.125 μM) were added to reach a total volume of 100 µL. In addition, 100 µL LB medium with an equal volume of DMSO (negative control) or 100 µL LB supplemented with 2% glucose and the same volume of DMSO (positive control) were added. Bacteria was cultured at 37°C with shaking for 3 h. The […] of WHQ02 is directly regulated by the lsr promoter, reflecting the strength of QS. The luminescence and OD600 were measured using an Enspire 2300 microplate reader (Perkin Elmer). To further study the effect of compounds on bacterial growth, overnight cultured WHQ02 was diluted 1:1,000 with LB medium and added to 96 well plate. Then, the compounds were added to a 96-well plate (final concentration: 100 µM) and diluted in a gradient. The same volume of DMSO was added to the control group. The plates were incubated at 37°C for 18 h. OD600 values were recorded using an Enspire 2300 microplate reader. The experiment was performed in triplicate.

The test system of test [2] is WHQ02 (E. coli BL21 ΔTolC pWHQ01). Nature of the test: Growth inhibition of the reporter strain (OD600). The test is classed as cell-based. To be noted: 100 to 3.13 μM. As to the method: as §1
The 12 hits showing >60% LsrK inhibition were tested for QS inhibition using cell-based AI-2-mediated QS interference assay, as previously described [Baba et al., 2006]). To ensure that lower luminescence was the result of QS inhibition not the chemical toxicity or antibacterial activity, strain growth inhibition was assessed concurrently. […] Therefore, a parallel experiment to test the MIC of compounds at a low bacterial density was conducted, indirectly reflecting the potential growth inhibition to avoid false positives.

Test [3] addresses T1, LsrK (Salmonella typhimurium, UniProt Q8ZKQ6). Put plainly: SPR assay. The test is classed as binding. An excerpt:
(§2) To express LsrK with a 6 × His-tag at the C-terminus, the LsrK encoding gene of Salmonella typhimurium was amplified using primers carrying restriction endonuclease sites BamHI and XhoI. The amplified product was cloned into the expression vector pET-28a with a C-terminal 6 × His-tag and transfected into E. coli BL21 (DE3).
His-tagged LsrK was immobilized in the NTA sensor chip (GE Healthcare) in Biacore 8 K using a running buffer consisting of 1 × PBS-T and 5% v/v DMSO. Serially diluted small molecules (concentration range: 50 to 1.56 µM) were injected. Intermediate concentration (12.5 µM) was set as a repeat, and 1 × PBS-T with 5% v/v DMSO was set as the control. The association time was set to 120 s; the dissociation time was set to 130 s; and the flow rate was set to 30 μL/min. The resulting data were fitted to the affinity binding model using Biacore Evaluation Software (GE Healthcare).

Test [4] has as its target T1, LsrK. Nature of the test: LsrK inhibition assay (Kinase-Glo luminescence). It is filed as biochemical. The procedure:
as §2
This assay was performed as previously described ([Gatta et al., 2019]), and the conditions were optimized. […] 74 purchased compounds were dissolved in dimethyl sulfoxide (20% v/v DMSO in reaction buffer) at a concentration of 2 mM. Briefly, 10 μL DPD, 10 μL LsrK, and 5 μL compound were added to a 96-well plate, and 25 μL ATP or 25 μL reaction buffer was added after 30 min incubation. The plate was incubated for 10 min at 37°C, then 50 μL of kit reagent was added, and the plate was incubated at 37°C for 15 min. The luminescence signal was measured using an Enspire 2300 microplate reader (PerkinElmer). Dose-response tests were carried out to verify the activity of hits chosen by primary screening. (200 μM–6.25 µM) ([Medarametla et al., 2018]). The inhibition percentage of each tested compound was determined as previously described and IC50 was calculated using four logistic parameters.

“Also recorded” adds a separate entry of the source. Like-named read-outs stand apart in the source and are kept apart here.

T1 sequence (Q8ZKQ6 whole entry): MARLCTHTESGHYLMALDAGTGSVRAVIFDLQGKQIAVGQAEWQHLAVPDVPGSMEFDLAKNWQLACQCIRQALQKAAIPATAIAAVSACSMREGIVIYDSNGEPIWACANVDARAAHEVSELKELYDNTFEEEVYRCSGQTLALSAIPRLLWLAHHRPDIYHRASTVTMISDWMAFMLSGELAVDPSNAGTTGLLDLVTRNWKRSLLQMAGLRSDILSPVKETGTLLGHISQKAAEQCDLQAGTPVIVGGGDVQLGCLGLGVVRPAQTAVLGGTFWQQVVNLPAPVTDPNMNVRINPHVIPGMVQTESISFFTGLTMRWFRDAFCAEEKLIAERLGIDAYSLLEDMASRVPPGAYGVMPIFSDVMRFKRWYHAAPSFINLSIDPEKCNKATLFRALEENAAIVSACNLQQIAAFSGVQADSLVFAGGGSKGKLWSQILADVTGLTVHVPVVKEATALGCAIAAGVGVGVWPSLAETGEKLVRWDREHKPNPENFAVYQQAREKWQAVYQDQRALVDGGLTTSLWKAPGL

With `NC(=O)c1cc(Cc2ccccc2)sc1NC(=O)C1C2CCC(C2)C1C(=O)O` (centres unmarked) [Y205-6768], the “AI-2 QS inhibitory activity (in words)” value in test [1] (100 to 3.13 μM) is reported as “significant QS inhibitory activities”. For the same compound, the “maximum AI-2 QS inhibition” value in test [1] (100 to 3.13 μM) is over 80%. For the same compound, the IC50 was 11.3 ± 0.7 µM in test [1] (Escherichia coli, cell-based QS interference assay, WHQ02, mean ± SD, n = 3); 8.73 ± 0.5 µM in test [4] (50 μM ATP, mean ± SD, n = 3, read-out: IC50A); 16.8 ± 0.76 µM in test [4] (100 μM ATP, mean ± SD, n = 3, read-out: IC50B); 26 ± 1.32 µM in test [4] (150 μM ATP, mean ± SD, n = 3, read-out: IC50C). Besides, the maximum growth inhibition in test [2] was under 40%. This compound came in with a Kd in test [3] (His-tagged LsrK on NTA chip, 50 to 1.56 µM, affinity binding model) of 8.49 µM. Moreover, the “LsrK specific binding (in words)” value in test [3] (SPR) was “specifically bound to LsrK; also recorded: exhibited LsrK specific binding”. Also, in test [4] (Table 1, hits at 200 μM with 100 μM ATP, mean ± SD, n = 3), the inhibition at 200 µM is 101 ± 8.39%. Further, the “type of LsrK inhibition” value in test [4] (from IC50 values at 50, 100 and 150 μM ATP) is listed as “ATP-competitive inhibitors”.
